The data set is described as follows: recombinant barcode read abundance after kanamycin selection (control-corrected) (log10(CPM+1)); higher = more efficient recombination; sequences stand for … in AGTGCAGAGAAAATCGGCCAGTTTTCTCTGCCTGCAGTCCGCATGCCGT…ATTTATGCAGCGGACTGCCTTTCTCCCAAAGTGATAAACCGGACAGTATCATGGACCGGTTTTCCCGGTAATCCGTATTTGCAAGGTTGGTTTCACT; site = the 11-nt target. A digest of the protocol:
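Pooled E. coli screen pairing targets with IS621 bridge RNA target-binding loops. Each oligo (promoter, target, barcode, J23119-driven first 104 bridge RNA bases) was Gibson-cloned into a vector with the remaining 73 bp and T7-inducible recombinase, then co-electroporated with a donor plasmid. Two replicates each were plated on chloramphenicol/ampicillin LB agar (control) or chloramphenicol/ampicillin/kanamycin with 0.1 mM IPTG. Recombination efficiency is recombinant-junction barcode counts as CPM, averaged, control-corrected, reported as log10(CPM+1).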
In the case of “ATGCTTTCTTGGGTTCTAACCTGTTGCCTGG [ATGCTTTCTAG_LTGcore_CT_RTGcore_CC] (site ATGCTTTCTAG) (LTG core: CT, RTG core: CC)”, the “recombinant barcode read abundance (log10)” value stood at 0.57. In the case of “ATGCTTTTGTGGGTTCTAACCTGTTGCCTCA [ATGCTTTCTAG_LTGcore_TG_RTGcore_TG] (site ATGCTTTCTAG) (LTG core: TG, RTG core: TG)” it was 0.313; in that of “ATGTCCCAATGGGTTCTAACCTGTTGCTCTT [ATGTCCCCTGA_LTGcore_AA_RTGcore_AA] (site ATGTCCCCTGA) (LTG core: AA, RTG core: AA)”, 0.133. With “ATGTCCCATTGGGTTCTAACCTGTTGCTCAT [ATGTCCCCTGA_LTGcore_AT_RTGcore_AT] (site ATGTCCCCTGA) (LTG core: AT, RTG core: AT)” the figure was 0.0551; with “ATGTCCCCATGGGTTCTAACCTGTTGCTCTG [ATGTCCCCTGA_LTGcore_CA_RTGcore_CA] (site ATGTCCCCTGA) (LTG core: CA, RTG core: CA)”, 0.0134. Take “ATGTCCCCCTGGGTTCTAACCTGTTGCTCAG [ATGTCCCCTGA_LTGcore_CC_RTGcore_CT] (site ATGTCCCCTGA) (LTG core: CC, RTG core: CT)”: the “recombinant barcode read abundance (log10)” value is 0.137. With “ATGTCCCCCTGGGTTCTAACCTGTTGCTCGG [ATGTCCCCTGA_LTGcore_CC_RTGcore_CC] (site ATGTCCCCTGA) (LTG core: CC, RTG core: CC)” the figure was 0.0529; with “ATGTCCCCGTGGGTTCTAACCTGTTGCTCAG [ATGTCCCCTGA_LTGcore_CG_RTGcore_CT] (site ATGTCCCCTGA) (LTG core: CG, RTG core: CT)”, 0.0411; with “ATGTCCCCTTGGGTTCTAACCTGTTGCTCAT [ATGTCCCCTGA_LTGcore_CT_RTGcore_AT] (site ATGTCCCCTGA) (LTG core: CT, RTG core: AT)”, 0.0302. With “ATGTCCCCTTGGGTTCTAACCTGTTGCTCGT [ATGTCCCCTGA_LTGcore_CT_RTGcore_AC] (site ATGTCCCCTGA) (LTG core: CT, RTG core: AC)” the figure was 0.161. As for “ATGTCCCGTTGGGTTCTAACCTGTTGCTCAG [ATGTCCCCTGA_LTGcore_GT_RTGcore_CT] (site ATGTCCCCTGA) (LTG core: GT, RTG core: CT)”, the “recombinant barcode read abundance (log10)” value is 0.0848. With “ATGTCCCTCTGGGTTCTAACCTGTTGCTCGA [ATGTCCCCTGA_LTGcore_TC_RTGcore_TC] (site ATGTCCCCTGA) (LTG core: TC, RTG core: TC)” the figure was 0.122; with “ATGTCCCTTTGGGTTCTAACCTGTTGCTCAG [ATGTCCCCTGA_LTGcore_TT_RTGcore_CT] (site ATGTCCCCTGA) (LTG core: TT, RTG core: CT)”, 0.0884. For the sequence “CATATTAAATGGGTTCTAACCTGTTGCCTAG [CATATTACTAG_LTGcore_AA_RTGcore_CT] (site CATATTACTAG) (LTG core: AA, RTG core: CT)”, the “recombinant barcode read abundance (log10)” value amounted to 0.0356.

As for “CATATTACATGGGTTCTAACCTGTTGCCTTG [CATATTACTAG_LTGcore_CA_RTGcore_CA] (site CATATTACTAG) (LTG core: CA, RTG core: CA)”, the “recombinant barcode read abundance (log10)” value came to 0.00594. On to “CATATTACTTGGGTTCTAACCTGTTGCCTAG [CATATTACTAG_LTGcore_CT_RTGcore_CT] (site CATATTACTAG) (LTG core: CT, RTG core: CT)”, for which the “recombinant barcode read abundance (log10)” value was determined as 0.22. Take “CATATTACTTGGGTTCTAACCTGTTGCCTAT [CATATTACTAG_LTGcore_CT_RTGcore_AT] (site CATATTACTAG) (LTG core: CT, RTG core: AT)”: the “recombinant barcode read abundance (log10)” value came to 0.0875. With “CATATTACTTGGGTTCTAACCTGTTGCCTGC [CATATTACTAG_LTGcore_CT_RTGcore_GC] (site CATATTACTAG) (LTG core: CT, RTG core: GC)” the figure was 0.0956; with “CATATTACTTGGGTTCTAACCTGTTGCCTGT [CATATTACTAG_LTGcore_CT_RTGcore_AC] (site CATATTACTAG) (LTG core: CT, RTG core: AC)”, 0.00796. Take “CATATTAGCTGGGTTCTAACCTGTTGCCTGC [CATATTACTAG_LTGcore_GC_RTGcore_GC] (site CATATTACTAG) (LTG core: GC, RTG core: GC)”: the “recombinant barcode read abundance (log10)” value was found to be 0. For “CATATTAGTTGGGTTCTAACCTGTTGCCTAC [CATATTACTAG_LTGcore_GT_RTGcore_GT] (site CATATTACTAG) (LTG core: GT, RTG core: GT)”, the “recombinant barcode read abundance (log10)” value came out at 0.1. As to “CATATTAGTTGGGTTCTAACCTGTTGCCTAG [CATATTACTAG_LTGcore_GT_RTGcore_CT] (site CATATTACTAG) (LTG core: GT, RTG core: CT)”, the “recombinant barcode read abundance (log10)” value amounted to 0.209.

“CATATTATCTGGGTTCTAACCTGTTGCCTGA [CATATTACTAG_LTGcore_TC_RTGcore_TC] (site CATATTACTAG) (LTG core: TC, RTG core: TC)”: the “recombinant barcode read abundance (log10)” value was found to be 0.0468. In the case of “CATATTATGTGGGTTCTAACCTGTTGCCTCA [CATATTACTAG_LTGcore_TG_RTGcore_TG] (site CATATTACTAG) (LTG core: TG, RTG core: TG)” it was 0.0228; in that of “CGAGCCCCATGGGTTCTAACCTGTTGCTGAG [CGAGCCCCTCA_LTGcore_CA_RTGcore_CT] (site CGAGCCCCTCA) (LTG core: CA, RTG core: CT)”, 1.27. In the case of “CGAGCCCCATGGGTTCTAACCTGTTGCTGTG [CGAGCCCCTCA_LTGcore_CA_RTGcore_CA] (site CGAGCCCCTCA) (LTG core: CA, RTG core: CA)” it was 0.111; in that of “CGAGCCCCGTGGGTTCTAACCTGTTGCTGCG [CGAGCCCCTCA_LTGcore_CG_RTGcore_CG] (site CGAGCCCCTCA) (LTG core: CG, RTG core: CG)”, 0.493. In the case of “CGAGCCCCTTGGGTTCTAACCTGTTGCTGAA [CGAGCCCCTCA_LTGcore_CT_RTGcore_TT] (site CGAGCCCCTCA) (LTG core: CT, RTG core: TT)”, the “recombinant barcode read abundance (log10)” value amounted to 0.691. With “CGAGCCCCTTGGGTTCTAACCTGTTGCTGCC [CGAGCCCCTCA_LTGcore_CT_RTGcore_GG] (site CGAGCCCCTCA) (LTG core: CT, RTG core: GG)” the figure was 0.235; with “CGAGCCCCTTGGGTTCTAACCTGTTGCTGCG [CGAGCCCCTCA_LTGcore_CT_RTGcore_CG] (site CGAGCCCCTCA) (LTG core: CT, RTG core: CG)”, 0.339. With “CGAGCCCCTTGGGTTCTAACCTGTTGCTGGA [CGAGCCCCTCA_LTGcore_CT_RTGcore_TC] (site CGAGCCCCTCA) (LTG core: CT, RTG core: TC)” the figure was 0.994; with “CGAGCCCCTTGGGTTCTAACCTGTTGCTGTG [CGAGCCCCTCA_LTGcore_CT_RTGcore_CA] (site CGAGCCCCTCA) (LTG core: CT, RTG core: CA)”, 0.176. In the case of “CGAGCCCGGTGGGTTCTAACCTGTTGCTGAG [CGAGCCCCTCA_LTGcore_GG_RTGcore_CT] (site CGAGCCCCTCA) (LTG core: GG, RTG core: CT)” it was 0.223. With “CGAGCCCGTTGGGTTCTAACCTGTTGCTGAC [CGAGCCCCTCA_LTGcore_GT_RTGcore_GT] (site CGAGCCCCTCA) (LTG core: GT, RTG core: GT)”, the “recombinant barcode read abundance (log10)” value was 0.156. In the case of “CGAGCCCTATGGGTTCTAACCTGTTGCTGTA [CGAGCCCCTCA_LTGcore_TA_RTGcore_TA] (site CGAGCCCCTCA) (LTG core: TA, RTG core: TA)”, the “recombinant barcode read abundance (log10)” value was 0.083.

“CGAGCCCTCTGGGTTCTAACCTGTTGCTGAG [CGAGCCCCTCA_LTGcore_TC_RTGcore_CT] (site CGAGCCCCTCA) (LTG core: TC, RTG core: CT)”: the “recombinant barcode read abundance (log10)” value was 0.0668. In the case of “CGAGCCCTGTGGGTTCTAACCTGTTGCTGAG [CGAGCCCCTCA_LTGcore_TG_RTGcore_CT] (site CGAGCCCCTCA) (LTG core: TG, RTG core: CT)” it was 0.134; in that of “CGAGCCCTTTGGGTTCTAACCTGTTGCTGAA [CGAGCCCCTCA_LTGcore_TT_RTGcore_TT] (site CGAGCCCCTCA) (LTG core: TT, RTG core: TT)”, 0.0246; in that of “CGCGCCCAATGGGTTCTAACCTGTTGCGGAG [CGCGCCCCTCC_LTGcore_AA_RTGcore_CT] (site CGCGCCCCTCC) (LTG core: AA, RTG core: CT)”, 0.173. In the case of “CGCGCCCCTTGGGTTCTAACCTGTTGCGGCT [CGCGCCCCTCC_LTGcore_CT_RTGcore_AG] (site CGCGCCCCTCC) (LTG core: CT, RTG core: AG)” it was 0.0596. With “CGCGCCCCTTGGGTTCTAACCTGTTGCGGGA [CGCGCCCCTCC_LTGcore_CT_RTGcore_TC] (site CGCGCCCCTCC) (LTG core: CT, RTG core: TC)” the figure was 0.0431; with “CGCGCCCCTTGGGTTCTAACCTGTTGCGGTG [CGCGCCCCTCC_LTGcore_CT_RTGcore_CA] (site CGCGCCCCTCC) (LTG core: CT, RTG core: CA)”, 0.382; with “CGCGCCCTATGGGTTCTAACCTGTTGCGGTA [CGCGCCCCTCC_LTGcore_TA_RTGcore_TA] (site CGCGCCCCTCC) (LTG core: TA, RTG core: TA)”, 0.0456.

Values taken from the supplement of paper PMC11208160.
